# Experimental data published in patent US5691373A, “Nonpeptide endothelin antagonists I” (Warner-Lambert Company, priority 1995, dated 1997).
# Like-named read-outs stand apart in the source and are kept apart here.
# Assays:
# ETA [1] = molecular target: T1, ETA (Oryctolagus cuniculus, UniProt A5A8K3)
# T1 sequence (A5A8K3 21-427): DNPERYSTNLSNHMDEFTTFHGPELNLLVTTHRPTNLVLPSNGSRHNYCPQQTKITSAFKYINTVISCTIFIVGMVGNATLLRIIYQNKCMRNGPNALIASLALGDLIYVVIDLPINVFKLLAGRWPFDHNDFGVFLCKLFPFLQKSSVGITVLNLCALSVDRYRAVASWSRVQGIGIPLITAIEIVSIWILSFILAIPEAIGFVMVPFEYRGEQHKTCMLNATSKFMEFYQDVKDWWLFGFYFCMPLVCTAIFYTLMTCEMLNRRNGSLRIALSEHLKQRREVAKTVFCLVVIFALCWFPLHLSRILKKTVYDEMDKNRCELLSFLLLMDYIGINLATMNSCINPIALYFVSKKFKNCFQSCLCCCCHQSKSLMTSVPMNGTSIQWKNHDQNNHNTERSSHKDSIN
# Experimental: The cells used were rabbit renal artery vascular smooth muscle cells grown in a 48-well dish (1 cm^2) (confluent cells).
# The growth media was Dulbecco's Modified Eagles/Ham's F12 which contained 10% fetal bovine serum and antibiotics (penicillin/streptomycin/fungizone).
# Second, remove the assay buffers, place the dish on ice, and add 150 μL of cold assay buffer described above to each well. […] Next, place dish in a 37° C., water bath for about 2 hours and gently agitate the dish every 15 minutes. Discard the radioactive incubation mixture in the sink and wash wells 3 times with 1 mL of cold phosphate buffered saline.
# ETA [2] = molecular target: T1, ETA; assay: VERA-A: antagonism of ET-1 stimulated vasoconstriction in the rabbit femoral artery (ETA); assay type: cell-based
# Experimental: Male New Zealand rabbits were killed by cervical dislocation and exsanguination. Femoral and pulmonary arteries were isolated, cleaned of connective tissue, and cut into 4-mm rings. The endothelium was denuded by placing the rings over hypodermic tubing (32 gauge for femoral rings and 28 gauge for pulmonary rings, Small Parts, Inc, Miami, Fla.) and gently rolling them. […] Resting tension was adjusted to 3.0 g for femoral and 4.0 g pulmonary arteries; the rings were left for 90 minutes to equilibrate.
# ETA [3] = molecular target: T1, ETA; remark: listed apart in the source
# ETB [4] = molecular target: T2, ETB (Rattus norvegicus, UniProt P21451)
# T2 sequence (P21451 27-442): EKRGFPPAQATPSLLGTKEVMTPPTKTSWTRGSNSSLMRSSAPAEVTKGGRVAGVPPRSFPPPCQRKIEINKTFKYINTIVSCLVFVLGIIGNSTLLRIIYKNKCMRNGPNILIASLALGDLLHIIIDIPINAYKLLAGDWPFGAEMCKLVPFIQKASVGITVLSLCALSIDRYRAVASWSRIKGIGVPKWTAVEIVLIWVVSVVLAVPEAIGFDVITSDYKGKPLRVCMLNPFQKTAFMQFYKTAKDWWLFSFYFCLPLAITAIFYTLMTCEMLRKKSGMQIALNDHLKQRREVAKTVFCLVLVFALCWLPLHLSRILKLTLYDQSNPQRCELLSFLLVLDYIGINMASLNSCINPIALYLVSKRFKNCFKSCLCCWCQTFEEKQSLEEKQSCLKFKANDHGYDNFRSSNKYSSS
# Experimental: The tissue is made up of 20 mM tris(hydroxymethyl)aminomethane hydrochloride (Trizma) buffer, 2 mM ethylenediaminetetra acetate, 100 μM phenylmethylsulfonyl fluoride.
# First, thaw one aliquot of frozen rat cerebellar membranes (2 mg protein in 0.5 mL). Next, add 0.5 mL membrane aliquot to 4.5 mL cold tissue buffer, polytron at 7,500 revolutions per minute for 10 seconds. Finally, dilute tissue suspension 1/100 (0.1 mL suspension+9.9 mL tissue buffer), polytron again, and place ice.
# Mix in 150 μL of tissue to each tube, vortex briefly, then tap to force all liquids to bottom (total assay volume=250 μL). Then place the tubes in a 37° C. water bath for 2 hours.
# Add 2.5 mL cold wash buffer (50 mM Trizma buffer) to each tube, filter, and then wash tube with additional 2.5 mL wash buffer and add to filter. Finally, wash filters with an additional 2.5 mL of cold wash buffer.
# Count filters for radioactivity in gamma counter.
# human ETB receptor = molecular target: T3, human ETB receptor (Homo sapiens, UniProt P24530); assay: ERBA-B: [125I]-ET-1 binding, recombinant human ETB receptor expressed in CHO-K1 cells
# T3 construct: expressed in transfected cells; host or cells: CHO-K1 cells, pRc-CMW (so in the source) expression vector, electroporation; membranes used
# T3 sequence (P24530 27-442): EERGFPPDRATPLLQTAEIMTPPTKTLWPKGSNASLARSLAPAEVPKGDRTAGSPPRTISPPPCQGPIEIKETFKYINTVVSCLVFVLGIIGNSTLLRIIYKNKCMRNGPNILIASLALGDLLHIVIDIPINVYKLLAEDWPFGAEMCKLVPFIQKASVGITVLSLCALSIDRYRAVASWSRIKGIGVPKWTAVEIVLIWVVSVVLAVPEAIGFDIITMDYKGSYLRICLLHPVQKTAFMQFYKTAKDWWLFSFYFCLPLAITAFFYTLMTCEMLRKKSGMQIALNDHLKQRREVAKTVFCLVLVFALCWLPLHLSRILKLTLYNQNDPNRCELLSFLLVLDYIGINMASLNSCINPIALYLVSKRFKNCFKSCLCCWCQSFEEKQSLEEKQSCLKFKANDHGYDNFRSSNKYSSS
# [5] = system: ET-1 Induced Pressor Response; assay: inhibition of ET-1 induced pressor response in anesthetized ganglionic blocked rats; assay type: in vivo, rat (Sprague Dawley); details: IV, ET-1 1 nm/kg
# Experimental: Antagonists were administered IV bolus (3, 10, 30, 100 μmol/kg, IV bolus) in separate groups of rats (5 minutes before ET-1 challenge [see Haleen, et al., J. Cardiovasc, Pharm., 22(Suppl. 8):598-5102 (1993)]). Duration of action of the antagonist was determined in conscious, chronically prepared normotensive rats. Rats were challenged with ET-1 (1.0 nmol/kg, IV bolus) on 5 consecutive days; Day =b 1 =l control and on Days 2-5 at 5, 20, 60, and 120 minutes following treatment with the antagonist. Separate groups of rats were used for each antagonist treatment.
# acute renal ischemia = details: rats; cited from earlier work
# cerebral vasospasm [6] = details: cited from earlier work
# cerebral vasospasm [7] = details: rabbits with SAH; cited from earlier work
# ETB [8] = details: isolated, endothelium-intact porcine pulmonary arteries; cited from earlier work
# [9] = ERBA-A IC50, [125I]-ET-1, rabbit renal artery vascular smooth muscle cells
# [10] = ET-1, rabbit femoral artery, read-out: VERA-A pA2 (converted)
# [11] = human cloned ETB receptor, read-out: ERBA-B IC50, human cloned receptor data
# [12] = read-out: ERBA-A IC50, [125I]-ET-1, rabbit renal artery vascular smooth muscle cells
Compound,IC50 (ETA [1]; [9]),Kb (ETA [2]; [10]),IC50 (ETA [3]),IC50 (human ETB receptor; [11]),other results
"COc1ccc(C2(O)OC(=O)C(c3ccc4c(c3)OCO4)=C2Cc2cccc(C(F)(F)F)c2)cc1 (stereo not drawn) [Example 82, 3-Benzo[1,3]dioxol-5-yl-5-hydroxy-5-(4-methoxyphenyl)-4-(3-trifluoromethylbenzyl)-5H-furan-2-one]",20 nM,2510 nM,140 nM,,IC50 (ETB [4]): 1300 nM
"CCCOc1cccc(CC2=C(c3cc(OC)cc(OC)c3)C(=O)OC2(O)c2ccc(OC)cc2)c1 (stereo not drawn) [Example 126, 3-(3,5-Dimethoxyphenyl)-5-hydroxy-5-(4-methoxyphenyl)-4-(3-propoxybenzyl)-5 H-furan-2-one]",10 nM,200 nM,86 nM,1500 nM,
"COc1ccc(C2(O)OC(=O)C(c3cc(OC)cc(OC)c3)=C2Cc2cccc(Cl)c2)cc1 (stereo not drawn) [Example 127, 4-(3-Chlorobenzyl)-3-(3,5-dimethoxyphenyl)-5-hydroxy-5-(4-methoxyphenyl)-5H -furan-2-one]",13 nM,631 nM,150 nM,1200 nM,
"COc1ccc(C2(O)OC(=O)C(c3cc(OC)cc(OC)c3)=C2Cc2cccc(C(F)(F)F)c2)cc1 (stereo not drawn) [Example 128, 3-(3,5-Dimethoxyphenyl)-5-hydroxy-5-(4-methoxyphenyl)-4-(3-trifluoromethylbenzyl)-5H-furan-2-one]",23 nM,1260 nM,210 nM,1600 nM,
"COc1ccc(C2(O)OC(=O)C(c3cc(OC)cc(OC)c3)=C2Cc2cccc(OC)c2)cc1 (stereo not drawn) [Example 130, 3-(3,5-Dimethoxyphenyl)-5-hydroxy-4-(3-methoxybenzyl)-5-(4-methoxyphenyl)-5 H-furan-2-one]",97 nM,200 nM,30 nM,1200 nM,
"CCCOc1cccc(CC2=C(c3ccc4c(c3)OCO4)C(=O)OC2(O)c2ccc(OC)cc2)c1 (stereo not drawn) [Example 159, 3-Benzo[1,3]dioxol-5-yl-5-hydroxy-5-(4-methoxyphenyl)-4-(3-propoxybenzyl)-5 H-furan-2-one]",12 nM,100 nM,36 nM,,IC50 (ETB [4]): 560 nM
"COc1ccc(C(=O)/C(Cc2ccccc2)=C(\C(=O)O)c2ccc3c(c2)OCO3)cc1 [Example 171, 2-Butenoic acid, 2-(1,3-benzodioxol-5-yl)-4-(4-methoxyphenyl)-4-oxo-3-(phenylmethyl)-, (Z)-, ion(1-) compd. with 2-hydroxy-N,N,N-triethanaminium (1:1)]",39 nM,,,,IC50 (ETB [4]): 2200 nM; % Inhibition on ET-1 Induced Pressor Response ([5]; 3 μmol/kg): 21%; % Inhibition on ET-1 Induced Pressor Response ([5]; 10 μmol/kg): 26%; % Inhibition on ET-1 Induced Pressor Response ([5]; 30 μmol/kg): 35%; % Inhibition on ET-1 Induced Pressor Response ([5]; 100 μmol/kg): 57%
"COc1ccc(C2(O)OC(=O)C(c3ccc4c(c3)OCO4)=C2CC2CCCCC2)cc1 (stereo not drawn) [Example 221, 3-Benzo[1,3]dioxol-5-yl-4-cyclohexylmethyl-5-hydroxy-5-(4-methoxyphenyl)-5H -furan-2-one]",,,,240 nM,"IC50 (ETA [1]; [12]): 20 nM; VERA-A pA2 (ETA [2]; ET-1, rabbit femoral artery): 6.4; IC50 (ETA [3]; read-out: AAR-A, ET-1 (0.3 nM) stimulated arachidonic acid release): 120 nM"
"CCCOc1cccc(C/C(C(=O)c2ccc(OC)cc2)=C(/C(=O)O)c2ccc3c(c2)OCO3)c1 [Example 253, 2-Butenoic acid, 2-(1,3-benzodioxol-5-yl)-4-(4-methoxyphenyl)-4-oxo-3-[(3-propoxyphenyl)methyl]-, (Z)-, ion(1-) compound with 2-hydroxy-N,N,N-trimethylethanaminium (1:1)]",,,,900 nM,"IC50 (ETA [1]; [12]): 17 nM; VERA-A pA2 (ETA [2]; ET-1, rabbit femoral artery): 7.0; % Inhibition on ET-1 Induced Pressor Response ([5]; 3 μmol/kg): 22%; % Inhibition on ET-1 Induced Pressor Response ([5]; 10 μmol/kg): 42%; % Inhibition on ET-1 Induced Pressor Response ([5]; 30 μmol/kg): 53%"
"COc1ccc(C(=O)/C(Cc2cc(OC)c(OC)c(OC)c2)=C(\C(=O)O)c2ccc3c(c2)OCO3)cc1 [Example 354, Sodium 2-Benzo[1,3]dioxol-5-yl-4-(4-methoxy-phenyl)-4-oxo-3-(3,4,5-trimethoxy-benzyl)-but-2-enoate]",0.8 nM,,< 1 nM,,"Kb (ETA [2]): 31.6 nM; IC50 (human ETB receptor; ERBA-B IC50, human cloned receptor data): 910 nM"
"COc1ccc(C2(O)OC(=O)C(c3ccc4c(c3)OCO4)=C2Cc2ccc(NC(C)=O)cc2)cc1C (stereo not drawn) [Example 384, N-{4-[4-Benzo[1,3]dioxol-5-yl-2-hydroxy-2-(4-methoxy-3-methyl-phenyl)-5-oxo-2,5-dihydro-furan-3-ylmethyl]-phenyl}-acetamide]",1 nM,50.1 nM,0.21 nM,760 nM,
"COc1ccc(C2(O)OC(=O)C(c3cc(OC)cc(OC)c3)=C2Cc2cc(OC)c(OC)c(OC)c2)cc1 (stereo not drawn) [Example 388, 3-(3,5-Dimethoxy-phenyl)-5-hydroxy-5-(4-methoxyphenyl)-4-(3,4,5-trimethoxy-benzyl)-5H-furan-2-one]",1.4 nM,100 nM,0.26 nM,1100 nM,
COc1cccc(Oc2c(NS(=O)(=O)c3ccc(C(C)(C)C)cc3)ncnc2OCCO)c1 [Ro 46-2005],,,,,efficacy in acute renal ischemia (acute renal ischemia): effective in models of acute renal ischemia; systemic arterial blood pressure (cerebral vasospasm [6]; rat with SAH): no significant effect on systemic arterial blood pressure; early cerebral vasospasm following SAH (cerebral vasospasm [6]; rat): prevent early cerebral vasospasm following SAH; efficacy in subarachnoid hemorrhage (cerebral vasospasm [6]; rats): effective in models of acute renal ischemia and subarachnoid hemorrhage
"COc1ccccc1Oc1c(NS(=O)(=O)c2ccc(C(C)(C)C)cc2)nc(-c2ncccn2)nc1OCCO [Ro 47-0203, Bosentan]",,,,,reduction of basilar artery cross-sectional area compared to sham (cerebral vasospasm [7]): 36±7%
"ET[6-21, 1,3,11,15-Ala]",,,,,vasorelaxation (ETB [8]): caused vasorelaxation
"ET[8-21,11,15-Ala]",,,,,vasorelaxation (ETB [8]): caused vasorelaxation
"N-Acetyl-ET[10-21,11,15-Ala]",,,,,vasorelaxation (ETB [8]): caused vasorelaxation
